Test results reported in the NIST ThermoML archive (doi:10.1016/j.jct.2005.03.020).

Experiments:
[1] = refractive index (Na D-line) (dimensionless); conditions: 298.15 K; 101.33 kPa; Liquid; Standard Abbe refractometry
[2] = 298.15 K; 101.33 kPa; Liquid
[3] = xn = mol fraction of the nth substance listed; conditions: 298.15 K, 101.33 kPa, Liquid
[4] = excess molar enthalpy (molar enthalpy of mixing); xn = mol fraction of the nth substance listed; conditions: 298.15 K, 101.33 kPa, Liquid

ClCCCCCl [1,4-dichlorobutane]
Conditions | mass density [kg/m3] | refractive index
[1] | – | 1.452
[2] | 1133.32 | –

CCOC=O [ethyl methanoate]
Conditions | mass density [kg/m3] | refractive index
[1] | – | 1.358
[2] | 914.17 | –

ClCCCCl [1,3-dichloropropane]
Conditions | mass density [kg/m3] | refractive index
[1] | – | 1.4455
[2] | 1178.34 | –

CCOC(=O)CC [ethyl propanoate]
Conditions | mass density [kg/m3] | refractive index
[1] | – | 1.3815
[2] | 884.02 | –

CCOC(C)=O [ethyl acetate]
Conditions | mass density [kg/m3] | refractive index
[1] | – | 1.3692
[2] | 894.33 | –

CCCC(=O)OCC [ethyl butanoate]
Conditions | mass density [kg/m3] | refractive index
[1] | – | 1.3895
[2] | 873.54 | –

CCCCC(=O)OCC [ethyl pentanoate]
Conditions | mass density [kg/m3] | refractive index
[1] | – | 1.398
[2] | 869.42 | –

ClCCCl [1,2-dichloroethane]
Conditions | mass density [kg/m3] | refractive index
[1] | – | 1.442
[2] | 1245.65 | –

ClCCCl [1,2-dichloroethane] + CCOC(C)=O
Conditions | excess molar enthalpy [kcal/mol] | mass density [kg/m3]
[3], x2 = 0.0497 | – | 1223.67
[3], x2 = 0.0983 | – | 1202.79
[3], x2 = 0.1492 | – | 1181.45
[3], x2 = 0.1997 | – | 1160.95
[3], x2 = 0.2524 | – | 1140.18
[3], x2 = 0.3059 | – | 1119.62
[3], x2 = 0.3618 | – | 1098.71
[3], x2 = 0.4184 | – | 1078.16
[3], x2 = 0.4765 | – | 1057.68
[3], x2 = 0.5356 | – | 1037.35
[3], x2 = 0.5982 | – | 1016.38
[3], x2 = 0.6603 | – | 996.21
[3], x2 = 0.7247 | – | 975.88
[3], x2 = 0.7893 | – | 955.96
[3], x2 = 0.857 | – | 935.65
[3], x2 = 0.928 | – | 914.85
[4], x2 = 0.0368 | -0.00939 | –
[4], x2 = 0.0819 | -0.021 | –
[4], x2 = 0.131 | -0.0345 | –
[4], x2 = 0.1846 | -0.0491 | –
[4], x2 = 0.2408 | -0.0642 | –
[4], x2 = 0.295 | -0.0779 | –
[4], x2 = 0.3419 | -0.0867 | –
[4], x2 = 0.3836 | -0.0935 | –
[4], x2 = 0.4244 | -0.101 | –
[4], x2 = 0.46 | -0.106 | –
[4], x2 = 0.4728 | -0.107 | –
[4], x2 = 0.4972 | -0.108 | –
[4], x2 = 0.5087 | -0.108 | –
[4], x2 = 0.5523 | -0.107 | –
[4], x2 = 0.604 | -0.104 | –
[4], x2 = 0.6668 | -0.0965 | –
[4], x2 = 0.747 | -0.0807 | –
[4], x2 = 0.8328 | -0.058 | –
[4], x2 = 0.9184 | -0.0322 | –

ClCCCCCCCl [1,6-dichlorohexane] + CCCCC(=O)OCC
Conditions | excess molar enthalpy [kcal/mol] | mass density [kg/m3]
[3], x2 = 0.0538 | – | 1053.1
[3], x2 = 0.1126 | – | 1041.51
[3], x2 = 0.1693 | – | 1030.36
[3], x2 = 0.2307 | – | 1018.34
[3], x2 = 0.287 | – | 1007.32
[3], x2 = 0.3464 | – | 995.69
[3], x2 = 0.5231 | – | 961.26
[3], x2 = 0.5825 | – | 949.74
[3], x2 = 0.701 | – | 926.81
[3], x2 = 0.7586 | – | 915.69
[3], x2 = 0.8777 | – | 892.8
[3], x2 = 0.94 | – | 880.88
[4], x2 = 0.0607 | -0.00433 | –
[4], x2 = 0.127 | -0.00896 | –
[4], x2 = 0.1968 | -0.0146 | –
[4], x2 = 0.264 | -0.0205 | –
[4], x2 = 0.3289 | -0.0265 | –
[4], x2 = 0.389 | -0.0331 | –
[4], x2 = 0.4445 | -0.0397 | –
[4], x2 = 0.4953 | -0.0439 | –
[4], x2 = 0.5409 | -0.0448 | –
[4], x2 = 0.5672 | -0.045 | –
[4], x2 = 0.5813 | -0.0449 | –
[4], x2 = 0.6117 | -0.0433 | –
[4], x2 = 0.6723 | -0.0395 | –
[4], x2 = 0.7364 | -0.0342 | –
[4], x2 = 0.8027 | -0.0278 | –
[4], x2 = 0.8717 | -0.0198 | –
[4], x2 = 0.9373 | -0.0107 | –

ClCCCCCCCl [1,6-dichlorohexane] + CCOC(C)=O
Conditions | excess molar enthalpy [kcal/mol] | mass density [kg/m3]
[3], x2 = 0.0827 | – | 1053.91
[3], x2 = 0.164 | – | 1043.7
[3], x2 = 0.2386 | – | 1033.83
[3], x2 = 0.3112 | – | 1023.72
[3], x2 = 0.3783 | – | 1013.89
[3], x2 = 0.4437 | – | 1003.86
[3], x2 = 0.5071 | – | 993.65
[3], x2 = 0.5654 | – | 983.86
[3], x2 = 0.6221 | – | 973.92
[3], x2 = 0.6754 | – | 964.14
[3], x2 = 0.7291 | – | 953.86
[3], x2 = 0.7774 | – | 944.24
[3], x2 = 0.824 | – | 934.61
[3], x2 = 0.8726 | – | 924.1
[3], x2 = 0.9134 | – | 914.94
[3], x2 = 0.9552 | – | 905.22
[4], x2 = 0.0931 | 0.00774 | –
[4], x2 = 0.1859 | 0.0127 | –
[4], x2 = 0.2737 | 0.0174 | –
[4], x2 = 0.3572 | 0.0197 | –
[4], x2 = 0.4323 | 0.0181 | –
[4], x2 = 0.4967 | 0.0149 | –
[4], x2 = 0.5544 | 0.0101 | –
[4], x2 = 0.6025 | 0.00755 | –
[4], x2 = 0.6355 | 0.0054 | –
[4], x2 = 0.7013 | 0.00318 | –
[4], x2 = 0.769 | 0.00105 | –
[4], x2 = 0.8355 | -0.00227 | –
[4], x2 = 0.9006 | -0.00363 | –
[4], x2 = 0.9593 | -0.00163 | –

ClCCCCCCCl [1,6-dichlorohexane]
Conditions | mass density [kg/m3] | refractive index
[1] | – | 1.4555
[2] | 1063.72 | –

ClCCCCCCl [1,5-dichloropentane]
Conditions | mass density [kg/m3] | refractive index
[1] | – | 1.454
[2] | 1095.27 | –

CCCCC(=O)OCC [ethyl pentanoate] + ClCCCCCl
Conditions | excess molar enthalpy [kcal/mol] | mass density [kg/m3]
[3], x1 = 0.0426 | – | 1118.97
[3], x1 = 0.0881 | – | 1103.57
[3], x1 = 0.1345 | – | 1088.34
[3], x1 = 0.1844 | – | 1072.46
[3], x1 = 0.2407 | – | 1055.13
[3], x1 = 0.2932 | – | 1039.54
[3], x1 = 0.3462 | – | 1024.28
[3], x1 = 0.4021 | – | 1008.72
[3], x1 = 0.4541 | – | 994.67
[3], x1 = 0.5187 | – | 977.83
[3], x1 = 0.5829 | – | 961.7
[3], x1 = 0.6452 | – | 946.59
[3], x1 = 0.7045 | – | 932.66
[3], x1 = 0.7796 | – | 915.67
[3], x1 = 0.8521 | – | 899.89
[3], x1 = 0.925 | – | 884.57
[4], x2 = 0.0443 | -0.00368 | –
[4], x2 = 0.0938 | -0.00985 | –
[4], x2 = 0.1472 | -0.0156 | –
[4], x2 = 0.2021 | -0.0229 | –
[4], x2 = 0.2576 | -0.0317 | –
[4], x2 = 0.3103 | -0.04 | –
[4], x2 = 0.3615 | -0.0492 | –
[4], x2 = 0.4093 | -0.0553 | –
[4], x2 = 0.4542 | -0.0607 | –
[4], x2 = 0.4637 | -0.062 | –
[4], x2 = 0.5038 | -0.0642 | –
[4], x2 = 0.5509 | -0.0653 | –
[4], x2 = 0.6143 | -0.0639 | –
[4], x2 = 0.6866 | -0.0592 | –
[4], x2 = 0.7631 | -0.0504 | –
[4], x2 = 0.8429 | -0.0372 | –
[4], x2 = 0.9262 | -0.0202 | –

ClCCCCCCCl [1,6-dichlorohexane] + CCCC(=O)OCC
Conditions | excess molar enthalpy [kcal/mol] | mass density [kg/m3]
[3], x2 = 0.0651 | – | 1052.45
[3], x2 = 0.1277 | – | 1041.56
[3], x2 = 0.1889 | – | 1030.69
[3], x2 = 0.2509 | – | 1019.59
[3], x2 = 0.3119 | – | 1008.53
[3], x2 = 0.3711 | – | 997.66
[3], x2 = 0.4384 | – | 985.13
[3], x2 = 0.4971 | – | 974.07
[3], x2 = 0.5548 | – | 963.05
[3], x2 = 0.6131 | – | 951.77
[3], x2 = 0.67 | – | 940.63
[3], x2 = 0.7263 | – | 929.48
[3], x2 = 0.7824 | – | 918.28
[3], x2 = 0.8369 | – | 907.25
[3], x2 = 0.8922 | – | 895.96
[3], x2 = 0.9457 | – | 884.85
[4], x2 = 0.051 | -0.000789 | –
[4], x2 = 0.1085 | -0.0022 | –
[4], x2 = 0.1746 | -0.00564 | –
[4], x2 = 0.2423 | -0.0101 | –
[4], x2 = 0.3076 | -0.0158 | –
[4], x2 = 0.3688 | -0.0202 | –
[4], x2 = 0.4325 | -0.0254 | –
[4], x2 = 0.4782 | -0.0283 | –
[4], x2 = 0.525 | -0.0321 | –
[4], x2 = 0.5779 | -0.0341 | –
[4], x2 = 0.6383 | -0.0346 | –
[4], x2 = 0.7034 | -0.0313 | –
[4], x2 = 0.7744 | -0.0254 | –
[4], x2 = 0.8524 | -0.0179 | –
[4], x2 = 0.9323 | -0.00949 | –
